Data from patent publication US11006626B2, “Compounds for protection of cells” (Sulfateq B.V., priority 2012, dated 2021).

Key:
apherese blood platelets = experiment: Apheresis platelets stored with Sul 136, hematology analysis (platelet count, MPV); type: cell-based; conditions: stored at 4° C. with Sul 136
Text: Platelets were obtained via standard plateletpheresis procedures either on Haemonetics (donor 2611811 and donor 2611855) or on Cobe instruments (donor 2611770). According the protocol all units would be obtained with plateletpheresis procedure with the Cobe instrument, but from the three donations two were not passing the blood bank quality control criteria. Nevertheless, all platelet donations have a similar concentration and a similar platelet quality. In none of the platelet concentrates clots were found. The freshly harvested platelets are weighed on a balance and for sampling of platelet concentrate a small PVC bag was seal-docked to the main platelet concentrate bag. Standard homogenization of platelet concentrate has to be done with a roller before sampling. 300 μM suspension of Sul 136 is added with a procedure, which keeps the bag content sterile and the Sul 136 is kept in suspension by frequent whirling and stored at 37° C. before it is added to the freshly harvested platelets. The Sul 136 suspension is added to three platelet bags directly from the bag. After addition, the content of the platelet bag is gently mixed. After 2 hours the first sample is drawn with a seal-docked sample bag. The sample bag is disconnected by welding and from this sample bag the samples are taken for hematology analyzing, aggregometer tests and the flow-cytometry tests. Swirling in the bag is reported by experience of the laboratory worker in the standard format. Platelets without Sul 136 put on a flatbed shaker and stored at room temperature were used as control. Another control is stored at 4° C. Platelet samples in which Sul 136 is added, are stored without shaking in a refrigerator at 4° C.

PRP platelets = PRP platelets stored with Sul 136, aggregation after stimulation with collagen; type: cell-based; set-up: key: +means that the cells show aggregation; ++means strong aggregation, these platelets can thus be activated upon stimulation; −means no aggregation upon stimulation
Protocol: […] • The color and coagulation properties were visually analysed. • The thrombocyte cells that survived were counted and it was evaluated whether the thrombocytes were aggregated. • It was evaluated if the thrombocytes still were able to function after stimulation by the addition of ADP or under influence of collagen in a 96 well plate. • The adhesion was evaluated, meaning the ability of the platelets to bind collagen in a 6 well plate preincubated with collagen. • Via an ELISA assay, it was evaluated whether thromboxane was secreted from the platelets. Thromboxane facilitates aggregation and is produced by activated blood platelets.
(+means that the cells show aggregation, ++means strong aggregation, these platelets can thus be activated upon stimulation, −means no aggregation upon stimulation)

Cc1c(C)c2c(c(C)c1O)CCC(C)(C(=O)N1CCN(CC(=O)O)CC1)O2 (racemic) [SUL - 136, 2-(4-(6-hydroxy-2,5,7,8-tetramethylchroman-2-carbonyl)piperazin-1-yl)acetic acid]
MPV (apherese blood platelets; Donor 2, Day 1): 10.1 fL
Platelets/μl (apherese blood platelets; Donor 2, Day 1): 1,004,000 Platelets/μl
MPV (apherese blood platelets; Donor 2, Day 2): 7.6 fL
Platelets/μl (apherese blood platelets; Donor 2, Day 2): 1,272,000 Platelets/μl
MPV (apherese blood platelets; Donor 2, Day 3): 7.8 fL
Platelets/μl (apherese blood platelets; Donor 2, Day 3): 1,220,000 Platelets/μl
MPV (apherese blood platelets; Donor 2, Day 5): 8.0 fL
Platelets/μl (apherese blood platelets; Donor 2, Day 5): 1,252,000 Platelets/μl
MPV (apherese blood platelets; Donor 2, Day 8): 8.0 fL
Platelets/μl (apherese blood platelets; Donor 2, Day 8): 1,168,000 Platelets/μl
MPV (apherese blood platelets; Donor 2, Day 10): 8.1 fL
Platelets/μl (apherese blood platelets; Donor 2, Day 10): 1,104,000 Platelets/μl
MPV (apherese blood platelets; Donor 2, Day 12): 8.6 fL
Platelets/μl (apherese blood platelets; Donor 2, Day 12): 1,032,000 Platelets/μl
MPV (apherese blood platelets; Donor 2, Day 19): 8.8 fL
Platelets/μl (apherese blood platelets; Donor 2, Day 19): 860,000 Platelets/μl
MPV (apherese blood platelets; Donor 3, Day 1): 10.3 fL
Platelets/μl (apherese blood platelets; Donor 3, Day 1): 980,000 Platelets/μl
MPV (apherese blood platelets; Donor 3, Day 2): 7.7 fL
Platelets/μl (apherese blood platelets; Donor 3, Day 2): 1,188,000 Platelets/μl
MPV (apherese blood platelets; Donor 3, Day 3): 7.7 fL
Platelets/μl (apherese blood platelets; Donor 3, Day 3): 1,072,000 Platelets/μl
MPV (apherese blood platelets; Donor 3, Day 5): 8.0 fL
Platelets/μl (apherese blood platelets; Donor 3, Day 5): 1,068,000 Platelets/μl
MPV (apherese blood platelets; Donor 3, Day 8): 8.3 fL
Platelets/μl (apherese blood platelets; Donor 3, Day 8): 992,000 Platelets/μl
MPV (apherese blood platelets; Donor 3, Day 10): 8.3 fL
Platelets/μl (apherese blood platelets; Donor 3, Day 10): 892,000 Platelets/μl
MPV (apherese blood platelets; Donor 3, Day 12): 9.0 fL
Platelets/μl (apherese blood platelets; Donor 3, Day 12): 912,000 Platelets/μl
MPV (apherese blood platelets; Donor 3, Day 19): 9.5 fL
Platelets/μl (apherese blood platelets; Donor 3, Day 19): 692,000 Platelets/μl
MPV (apherese blood platelets; donor 1, Day 1): 10.6 fL
Platelets/μl (apherese blood platelets; donor 1, Day 1): 1,000,000 Platelets/μl
MPV (apherese blood platelets; donor 1, Day 2): 9.5 fL
Platelets/μl (apherese blood platelets; donor 1, Day 2): 1,192,000 Platelets/μl
MPV (apherese blood platelets; donor 1, Day 3): 9.2 fL
Platelets/μl (apherese blood platelets; donor 1, Day 3): 1,240,000 Platelets/μl
MPV (apherese blood platelets; donor 1, Day 5): 9.1 fL
Platelets/μl (apherese blood platelets; donor 1, Day 5): 1,232,000 Platelets/μl
MPV (apherese blood platelets; donor 1, Day 8): 9.3 fL
Platelets/μl (apherese blood platelets; donor 1, Day 8): 1,352,000 Platelets/μl
MPV (apherese blood platelets; donor 1, Day 10): 9.6 fL
Platelets/μl (apherese blood platelets; donor 1, Day 10): 1,228,000 Platelets/μl
MPV (apherese blood platelets; donor 1, Day 12): 9.8 fL
Platelets/μl (apherese blood platelets; donor 1, Day 12): 1,204,000 Platelets/μl
MPV (apherese blood platelets; donor 1, Day 19): 8.8 fL
Platelets/μl (apherese blood platelets; donor 1, Day 19): 1,068,000 Platelets/μl
aggregation of the PRP platelets after stimulation with collagen (PRP platelets; 10 min 0.001 mM, 0 h): +
aggregation of the PRP platelets after stimulation with collagen (PRP platelets; 10 min 0.01 mM, 0 h): +
aggregation of the PRP platelets after stimulation with collagen (PRP platelets; 10 min 0.1 mM, 0 h): +
aggregation of the PRP platelets after stimulation with collagen (PRP platelets; 10 min 1 mM, 0 h): +
aggregation of the PRP platelets after stimulation with collagen (PRP platelets; 10 min 10 mM, 0 h): ++
aggregation of the PRP platelets after stimulation with collagen (PRP platelets; 10 min 10 mM, 24 h): ++
aggregation of the PRP platelets after stimulation with collagen (PRP platelets; 10 min 10 mM, 48 h): ++
aggregation of the PRP platelets after stimulation with collagen (PRP platelets; 10 min 10 mM, 72 h): ++
aggregation of the PRP platelets after stimulation with collagen (PRP platelets; 10 min 10 mM, 216 h): ++
aggregation of the PRP platelets after stimulation with collagen (PRP platelets; 60 min 0.001 mM, 0 h): +
aggregation of the PRP platelets after stimulation with collagen (PRP platelets; 60 min 0.01 mM, 0 h): +
aggregation of the PRP platelets after stimulation with collagen (PRP platelets; 60 min 0.1 mM, 0 h): +
aggregation of the PRP platelets after stimulation with collagen (PRP platelets; 60 min 1 mM, 0 h): +
aggregation of the PRP platelets after stimulation with collagen (PRP platelets; 60 min 10 mM, 0 h): ++
aggregation of the PRP platelets after stimulation with collagen (PRP platelets; 60 min 10 mM, 24 h): ++
aggregation of the PRP platelets after stimulation with collagen (PRP platelets; 60 min 10 mM, 48 h): ++
aggregation of the PRP platelets after stimulation with collagen (PRP platelets; 60 min 10 mM, 72 h): ++
